Laboratory results: PubChem BioAssay (NCI)
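Grown in 96-well plates, cells were treated for 48 hours with each compound at five concentrations. Insufficient inhibition: endpoint recorded as highest concentration tested. GI50: concentration for 50% inhibition of growth. TGI: total growth inhibition.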

Test system: MDA-MB-468 breast
Assay: inhibition of tumour cell growth, NCI panel, 48 h

| SMILES | GI50 | TGI |
| --- | --- | --- |
| O=C1/C(=C/c2ccccc2[N+](=O)[O-])Oc2ccc(O)cc21 | 1810 nM | 3.85 µM |
| COc1cc(Nc2ncc3c(C)nc(-c4cccc(C(F)(F)F)c4)n3n2)cc(OC)c1OC | 2810 nM | 5.98 µM |
| CCCCN1C=CCN(CCCC)C1 | 18600 nM | 61.3 µM |
| N#Cc1cc(-c2ccnc(Nc3ccc(NC(=O)CCl)cc3)n2)ccc1N1CCCC1 | 3400 nM | 7.13 µM |
| CCN(Cc1cc(F)cc(F)c1)c1ccc(CO)c(Cl)c1 | 18.7 nM | 0.0505 µM |
| COc1ccc([C@H]2[C@H](O)C(=O)N2c2cc(OC)c(OC)c(OC)c2)cc1 | < 10 nM | > 100 µM |
